Laboratory results from DBAASP.
≈ marks a conversion by molar mass, not a printed value.

How the values were obtained:
Assay in all cases: ≥ marks a high value that may be exact or a test limit, other limits are often not marked, values filed in µg/mL are converted to µM
[1] = tested on: Pseudomonas aeruginosa KCTC 2004
[2] = tested on: Staphylococcus aureus CCARM 3108
[3] = tested on: Escherichia coli KCTC 1682
[4] = tested on: Escherichia coli CCARM 1238
[5] = tested on: Escherichia coli KCTC 2593
[6] = tested on: Bacillus subtilis KCTC 3068
[7] = tested on: Pseudomonas aeruginosa KCTC 1637
[8] = tested on: Staphylococcus epidermidis KCTC 1917
[9] = tested on: Acinetobacter baumannii CCARM 12035
[10] = tested on: Staphylococcus aureus KCTC 3881
[11] = tested on: Bacillus subtilis KCTC 1022
[12] = tested on: Escherichia coli CCARM 1229
[13] = tested on: Escherichia coli KCTC 2571
[14] = tested on: Pseudomonas aeruginosa CCARM 2163
[15] = tested on: Salmonella typhimurium CCARM 8009
[16] = tested on: Staphylococcus aureus CCARM 3089
[17] = tested on: Staphylococcus aureus CCARM 3090
[18] = tested on: Salmonella typhimurium CCARM 8003
[19] = tested on: Acinetobacter baumannii CCARM 12005
[20] = tested on: Pseudomonas aeruginosa CCARM 2003
[21] = tested on: Staphylococcus aureus KCTC 1621
[22] = tested on: Acinetobacter baumannii CCARM 12036
[23] = tested on: Salmonella typhimurium KCTC 1926
[24] = tested on: Pseudomonas aeruginosa CCARM 2095
[25] = tested on: Staphylococcus aureus KCTC 1916
[26] = tested on: Staphylococcus aureus CCARM 3126
[27] = tested on: Bacillus subtilis KCTC 1021
[28] = tested on: Pseudomonas aeruginosa KCTC 2513
[29] = tested on: Pseudomonas aeruginosa CCARM 2002
[30] = tested on: Acinetobacter baumannii CCARM 12037
[31] = tested on: Salmonella typhimurium CCARM 8007
[32] = tested on: Staphylococcus aureus CCARM 3114
[33] = tested on: Saccharomyces cerevisiae ATCC 44774
[34] = tested on: Staphylococcus aureus ATCC 15752
[35] = tested on: Bacillus subtilis ATCC 62037
[36] = tested on: Streptococcus mutans ATCC 25175
[37] = tested on: Cryptococcus neoformans ATCC 34881
[38] = tested on: Escherichia coli ATCC 27325
[39] = tested on: Candida albicans ATCC 10231
[40] = tested on: Pseudomonas putida ATCC 17426
[41] = tested on: Salmonella enterica subsp. enterica serovar Enteritidis ATCC 13076

| MIC [1] [µM] | MIC [2] [µM] | MIC [3] [µM] | MIC [4] [µM] | MIC [5] [µM] | MIC [6] [µM] | MIC [7] [µM] | MIC [8] [µM] | MIC [9] [µM] | MIC [10] [µM] | MIC [11] [µM] | MIC [12] [µM] | MIC [13] [µM] | MIC [14] [µM] | MIC [15] [µM] | MIC [16] [µM] | MIC [17] [µM] | MIC [18] [µM] | MIC [19] [µM] | MIC [20] [µM] | Compound | other results |
| --- | --- | --- | --- | --- | --- | --- | --- | --- | --- | --- | --- | --- | --- | --- | --- | --- | --- | --- | --- | --- | --- |
| 8 (≈ 20 µg/mL) | 16 (≈ 39.9 µg/mL) | 2 (≈ 4.99 µg/mL) | ≥ 32 | 2 (≈ 4.99 µg/mL) | 4 (≈ 9.98 µg/mL) | 4 (≈ 9.98 µg/mL) | 4 (≈ 9.98 µg/mL) | 4 (≈ 9.98 µg/mL) | 4 (≈ 9.98 µg/mL) | 2 (≈ 4.99 µg/mL) | ≥ 32 | 4 (≈ 9.98 µg/mL) | 4 (≈ 9.98 µg/mL) | 16 (≈ 39.9 µg/mL) | ≥ 32 | ≥ 32 | ≥ 32 | 4 (≈ 9.98 µg/mL) | 4 (≈ 9.98 µg/mL) | CC[C@H](C)[C@H](NC(=O)CNC(=O)[C@H](CCCN=C(N)N)NC(=O)[C@H](C)NC(=O)[C@@H](NC(=O)[C@H](Cc1cnc[nH]1)NC(=O)[C@H](Cc1cnc[nH]1)NC(=O)[C@H](Cc1ccccc1)NC(=O)[C@@H](N)Cc1ccccc1)[C@@H](C)CC)C(=O)N[C@H](C(=O)N[C@@H](Cc1cnc[nH]1)C(=O)N[C@H](C(=O)NCC(=O)N[C@@H](CCCCN)C(=O)N[C@H](C(=O)N[C@H](C(=O)N[C@@H](Cc1cnc[nH]1)C(=O)N[C@@H](CCCN=C(N)N)C(=O)N[C@@H](CC(C)C)C(=O)N[C@H](C(=O)N[C@H](C(=O)NCC(=O)O)[C@@H](C)O)C(C)C)[C@@H](C)CC)[C@@H](C)O)C(C)C)C(C)C [FFHHIARGIVHVGKTIHRLVTG] | MIC [21]: 4 µM (≈ 9.98 µg/mL); MIC [22]: 4 µM (≈ 9.98 µg/mL); MIC [23]: 16 µM (≈ 39.9 µg/mL); MIC [24]: 4 µM (≈ 9.98 µg/mL); MIC [25]: 2 µM (≈ 4.99 µg/mL); MIC [26]: 16 µM (≈ 39.9 µg/mL); MIC [27]: 16 µM (≈ 39.9 µg/mL); MIC [28]: 16 µM (≈ 39.9 µg/mL); MIC [29]: 4 µM (≈ 9.98 µg/mL); MIC [30]: 4 µM (≈ 9.98 µg/mL); MIC [31]: 16 µM (≈ 39.9 µg/mL); MIC [32]: 16 µM (≈ 39.9 µg/mL) |
| 8 (≈ 20.4 µg/mL) | 16 (≈ 40.8 µg/mL) | 4 (≈ 10.2 µg/mL) | 16 (≈ 40.8 µg/mL) | 2 (≈ 5.11 µg/mL) | 4 (≈ 10.2 µg/mL) | 4 (≈ 10.2 µg/mL) | 2 (≈ 5.11 µg/mL) | 2 (≈ 5.11 µg/mL) | 2 (≈ 5.11 µg/mL) | 1 (≈ 2.55 µg/mL) | 16 (≈ 40.8 µg/mL) | 2 (≈ 5.11 µg/mL) | 2 (≈ 5.11 µg/mL) | 16 (≈ 40.8 µg/mL) | 16 (≈ 40.8 µg/mL) | 16 (≈ 40.8 µg/mL) | 16 (≈ 40.8 µg/mL) | 2 (≈ 5.11 µg/mL) | 2 (≈ 5.11 µg/mL) | CC[C@H](C)[C@H](NC(=O)CNC(=O)[C@H](CCCN=C(N)N)NC(=O)[C@H](Cc1ccccc1)NC(=O)[C@@H](NC(=O)[C@H](Cc1cnc[nH]1)NC(=O)[C@H](Cc1cnc[nH]1)NC(=O)[C@H](CCCCN)NC(=O)[C@@H](N)Cc1ccccc1)[C@@H](C)CC)C(=O)N[C@H](C(=O)N[C@@H](Cc1cnc[nH]1)C(=O)N[C@H](C(=O)NCC(=O)N[C@@H](CCCCN)C(=O)N[C@H](C(=O)N[C@H](C(=O)N[C@@H](Cc1cnc[nH]1)C(=O)N[C@@H](CCCN=C(N)N)C(=O)N[C@@H](CC(C)C)C(=O)N[C@H](C(=O)N[C@H](C(=O)NCC(=O)O)[C@@H](C)O)C(C)C)[C@@H](C)CC)[C@@H](C)O)C(C)C)C(C)C [FKHHIFRGIVHVGKTIHRLVTG] | MIC [21]: 4 µM (≈ 10.2 µg/mL); MIC [22]: 2 µM (≈ 5.11 µg/mL); MIC [23]: 8 µM (≈ 20.4 µg/mL); MIC [24]: 2 µM (≈ 5.11 µg/mL); MIC [25]: 2 µM (≈ 5.11 µg/mL); MIC [26]: 16 µM (≈ 40.8 µg/mL); MIC [27]: 4 µM (≈ 10.2 µg/mL); MIC [28]: 8 µM (≈ 20.4 µg/mL); MIC [29]: 2 µM (≈ 5.11 µg/mL); MIC [30]: 2 µM (≈ 5.11 µg/mL); MIC [31]: 16 µM (≈ 40.8 µg/mL); MIC [32]: 16 µM (≈ 40.8 µg/mL) |
| 2 (≈ 5.16 µg/mL) | 4 (≈ 10.3 µg/mL) | 1 (≈ 2.58 µg/mL) | 4 (≈ 10.3 µg/mL) | 2 (≈ 5.16 µg/mL) | 1 (≈ 2.58 µg/mL) | 1 (≈ 2.58 µg/mL) | 1 (≈ 2.58 µg/mL) | 2 (≈ 5.16 µg/mL) | 2 (≈ 5.16 µg/mL) | 2 (≈ 5.16 µg/mL) | 4 (≈ 10.3 µg/mL) | 2 (≈ 5.16 µg/mL) | 2 (≈ 5.16 µg/mL) | 8 (≈ 20.7 µg/mL) | 4 (≈ 10.3 µg/mL) | 4 (≈ 10.3 µg/mL) | 8 (≈ 20.7 µg/mL) | 2 (≈ 5.16 µg/mL) | 2 (≈ 5.16 µg/mL) | CC[C@H](C)[C@H](NC(=O)CNC(=O)[C@H](CCCN=C(N)N)NC(=O)[C@H](Cc1ccccc1)NC(=O)[C@@H](NC(=O)[C@H](Cc1cnc[nH]1)NC(=O)[C@H](Cc1cnc[nH]1)NC(=O)[C@H](Cc1ccccc1)NC(=O)[C@@H](N)CCCCN)[C@@H](C)CC)C(=O)N[C@@H](CCCCN)C(=O)N[C@@H](Cc1cnc[nH]1)C(=O)N[C@H](C(=O)NCC(=O)N[C@@H](CCCCN)C(=O)N[C@H](C(=O)N[C@H](C(=O)N[C@@H](Cc1cnc[nH]1)C(=O)N[C@@H](CCCN=C(N)N)C(=O)N[C@@H](CC(C)C)C(=O)N[C@H](C(=O)N[C@H](C(=O)NCC(=O)O)[C@@H](C)O)C(C)C)[C@@H](C)CC)[C@@H](C)O)C(C)C [KFHHIFRGIKHVGKTIHRLVTG] | MIC [21]: 2 µM (≈ 5.16 µg/mL); MIC [22]: 2 µM (≈ 5.16 µg/mL); MIC [23]: 1 µM (≈ 2.58 µg/mL); MIC [24]: 2 µM (≈ 5.16 µg/mL); MIC [25]: 2 µM (≈ 5.16 µg/mL); MIC [26]: 4 µM (≈ 10.3 µg/mL); MIC [27]: 4 µM (≈ 10.3 µg/mL); MIC [28]: 2 µM (≈ 5.16 µg/mL); MIC [29]: 2 µM (≈ 5.16 µg/mL); MIC [30]: 2 µM (≈ 5.16 µg/mL); MIC [31]: 8 µM (≈ 20.7 µg/mL); MIC [32]: 8 µM (≈ 20.7 µg/mL) |
|  |  |  |  |  |  |  |  |  |  |  |  |  |  |  |  |  |  |  |  | CC(C)[C@H](NC(=O)[C@H](CCCCN)NC(=O)CNC(=O)CNC(=O)[C@H](CCC(N)=O)NC(=O)[C@H](CCCCN)NC(=O)CNC(=O)[C@H](CCCN=C(N)N)NC(=O)CNC(=O)[C@@H](N)CCCCN)C(=O)N[C@@H](CCCN=C(N)N)C(=O)N[C@@H](C)C(=O)N[C@@H](CCCCN)C(=O)N[C@@H](C)C(=O)N[C@@H](CCCCN)C(=O)O [KGRGKQGGKVRAKAK] | MIC [33]: 0.637 µM (≈ 1 µg/mL); MIC [34]: 2.55 µM (≈ 4 µg/mL); MIC [35]: 0.637 µM (≈ 1 µg/mL); MIC [36]: 1.27 µM (≈ 2 µg/mL); MIC [37]: 0.637 µM (≈ 1 µg/mL); MIC [38]: 0.637 µM (≈ 1 µg/mL); MIC [39]: 0.637 µM (≈ 1 µg/mL); MIC [40]: 0.637 µM (≈ 1 µg/mL); MIC [41]: 2.55 µM (≈ 4 µg/mL) |
